Data: PubChem BioAssay (NCI)
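A five-concentration, 48-hour dose response in 96-well plates underlies each endpoint, interpolated linearly between surrounding concentrations. At the TGI there is no net growth.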

Tests used:
Test in all cases: NCI-60 cell line screen, 48 h
NCI-H226 lung = system: NCI-H226 lung
TK-10 renal = system: TK-10 renal
HCT-15 colon = system: HCT-15 colon
CAKI-1 renal = system: CAKI-1 renal
DU-145 prostate = system: DU-145 prostate
U251 CNS = system: U251 CNS
A498 renal = system: A498 renal
SW-620 colon = system: SW-620 colon
OVCAR-8 ovarian = system: OVCAR-8 ovarian
RPMI-8226 leukemia = system: RPMI-8226 leukemia
MDA-MB-231 breast = system: MDA-MB-231 breast
SNB-19 CNS = system: SNB-19 CNS
SK-MEL-5 melanoma = system: SK-MEL-5 melanoma
HS 578T breast = system: HS 578T breast
HCT-116 colon = system: HCT-116 colon
SN12C renal = system: SN12C renal
MDA-MB-435 = system: MDA-MB-435
SF-268 CNS = system: SF-268 CNS
EKVX NSCLC = system: EKVX NSCLC
BT-549 breast = system: BT-549 breast

Measured: TGI

CCSc1cc2c(cc1O)CC[C@@H]1[C@@H]2CC[C@]2(C)[C@@H](O)CC[C@@H]12
25.2 µM: U251 CNS
26.4 µM: CAKI-1 renal
10.4 µM: MDA-MB-435
23.2 µM: HCT-15 colon
22.7 µM: SK-MEL-5 melanoma
74.9 µM: DU-145 prostate
38.5 µM: OVCAR-8 ovarian
17.9 µM: HS 578T breast
62.3 µM: TK-10 renal
55 µM: SF-268 CNS
> 100 µM: RPMI-8226 leukemia
35.1 µM: NCI-H226 lung | SN12C renal
32.7 µM: HCT-116 colon
18.8 µM: MDA-MB-231 breast
25.5 µM: SNB-19 CNS
28.9 µM: A498 renal
13.2 µM: SW-620 colon

CCOC(=O)C(C(=O)OCC)c1ccc([N+](=O)[O-])o1
30.8 µM: TK-10 renal
16.1 µM: CAKI-1 renal | OVCAR-8 ovarian
33.6 µM: HCT-15 colon
31.5 µM: SK-MEL-5 melanoma
36.8 µM: U251 CNS
23.6 µM: RPMI-8226 leukemia
35.4 µM: EKVX NSCLC
45.7 µM: NCI-H226 lung
9.94 µM: SW-620 colon
> 100 µM: SNB-19 CNS
32.2 µM: SN12C renal
29 µM: HCT-116 colon
70.3 µM: SF-268 CNS

COc1cc2c(cc1OCCCOS(C)(=O)=O)N=C[C@@H]1CCCN1C2=O
not listed: BT-549 breast
> 100 µM: all other assays above

CCOC(=O)C1C(C)C2(C#N)C(=N)OC1(C)C2(C#N)C#N (centres undefined)
98.5 µM: SK-MEL-5 melanoma
43.8 µM: RPMI-8226 leukemia
not listed: BT-549 breast
> 100 µM: all other assays above

CC(C)CC(=O)NC(C(=O)NC(C(=O)NC(CC(C)C)C(O)CC(=O)NC(C)C(=O)NC(CC(C)C)C(O)CC(=O)O)C(C)C)C(C)C (centres undefined)
not listed: HS 578T breast
> 100 µM: all other assays above

C=CCN1COc2c(cc3c4c(cccc24)C(=O)O3)C1
52.1 µM: A498 renal
49.3 µM: CAKI-1 renal
62.7 µM: SW-620 colon
35.5 µM: SN12C renal
36.7 µM: HCT-116 colon
39 µM: TK-10 renal
> 100 µM: NCI-H226 lung | U251 CNS | OVCAR-8 ovarian | SNB-19 CNS | SK-MEL-5 melanoma | SF-268 CNS
92 µM: EKVX NSCLC
50 µM: HCT-15 colon
97.1 µM: RPMI-8226 leukemia

CNC(=O)NCCN1CC2CCC(CC2)C1
not listed: BT-549 breast
> 10 µM: all other assays above

CCOC(=O)Cn1c(=O)c2nc(SC)sc2n(-c2ccccc2)c1=S
95.8 µM: OVCAR-8 ovarian
60.1 µM: TK-10 renal
72.9 µM: MDA-MB-231 breast
29.3 µM: U251 CNS
36.6 µM: NCI-H226 lung
34.4 µM: HS 578T breast
30.6 µM: SNB-19 CNS
not listed: CAKI-1 renal | A498 renal | EKVX NSCLC | BT-549 breast
> 100 µM: all other assays above

C[Si](C)(N[Si](C)(C)OCCc1ccccc1)OCCc1ccccc1
not listed: MDA-MB-231 breast | HS 578T breast | SF-268 CNS
> 100 µM: all other assays above

CC(=O)C1Cn2c(=O)c3cc4ccccc4cc3c(=O)n2C=C1C (centres undefined)
not listed: DU-145 prostate | MDA-MB-231 breast | HS 578T breast | MDA-MB-435 | BT-549 breast
> 100 µM: all other assays above

C/C(CC(=O)Nc1cc(C)ccc1C)=N/N=C(N)N
> 100 µM: NCI-H226 lung | TK-10 renal | U251 CNS | A498 renal | SW-620 colon | OVCAR-8 ovarian | EKVX NSCLC | RPMI-8226 leukemia | SK-MEL-5 melanoma | HCT-116 colon | SF-268 CNS

C=C(C)[C@@]1(O)CCCC[C@@H]1CC(Sc1ccccc1)Sc1ccccc1
38.3 µM: SNB-19 CNS
28.8 µM: CAKI-1 renal
30 µM: TK-10 renal
32.4 µM: SN12C renal
29.5 µM: SK-MEL-5 melanoma
33.9 µM: RPMI-8226 leukemia
32.1 µM: NCI-H226 lung
33 µM: MDA-MB-435
33.3 µM: HCT-15 colon
30.1 µM: DU-145 prostate
38.7 µM: MDA-MB-231 breast
30.2 µM: HCT-116 colon
35.1 µM: HS 578T breast
28.7 µM: EKVX NSCLC
31.1 µM: SF-268 CNS
68.4 µM: A498 renal
38.6 µM: OVCAR-8 ovarian
53.9 µM: U251 CNS

O=C(CC(C(=O)c1cccs1)c1ccsc1)c1ccccc1 (centres undefined)
96.9 µM: MDA-MB-231 breast
not listed: SNB-19 CNS | BT-549 breast
> 100 µM: all other assays above

COc1ccc2nc3c([N+](=O)[O-])ccc(NCCCN(C)C)c3c(NCCCN(C)C)c2c1
2.87 µM: MDA-MB-231 breast
2.86 µM: HCT-15 colon
> 10 µM: DU-145 prostate | MDA-MB-435 | SF-268 CNS
3.46 µM: SK-MEL-5 melanoma
5.52 µM: TK-10 renal
6.22 µM: SW-620 colon
2.63 µM: SN12C renal
2.53 µM: RPMI-8226 leukemia
3.98 µM: CAKI-1 renal
2.9 µM: OVCAR-8 ovarian
5.09 µM: EKVX NSCLC

Clc1ccc(CCn2cncn2)cc1
not listed: DU-145 prostate | MDA-MB-231 breast | SNB-19 CNS | HS 578T breast | MDA-MB-435 | EKVX NSCLC | BT-549 breast
> 100 µM: all other assays above

N#CC1=C(c2ccccc2)C(=C2Nc3ccccc3N2)C2S/C(=C\c3ccccc3)C(=O)N2C1=N (centres undefined)
10.3 µM: HCT-15 colon
5.2 µM: EKVX NSCLC
5.19 µM: OVCAR-8 ovarian
3.3 µM: SK-MEL-5 melanoma
11.7 µM: SNB-19 CNS
10.9 µM: HCT-116 colon
15.8 µM: SW-620 colon
3.73 µM: NCI-H226 lung
5.54 µM: U251 CNS
4.78 µM: TK-10 renal
7.73 µM: A498 renal
4.01 µM: CAKI-1 renal
6.35 µM: SF-268 CNS
11.4 µM: SN12C renal

O=c1c2ccccc2nc2n1-c1ccccc1SC2
86.9 µM: SK-MEL-5 melanoma
71.9 µM: RPMI-8226 leukemia
not listed: NCI-H226 lung | DU-145 prostate | MDA-MB-231 breast | HS 578T breast | MDA-MB-435 | BT-549 breast
> 100 µM: all other assays above

COC(=O)C(C)(C)[C@@H]1OC(=O)N(S(=O)(=O)c2c(C)cc(C)cc2C)[C@H]1C(C)C
not listed: CAKI-1 renal | A498 renal | BT-549 breast
> 100 µM: all other assays above

O=C(O)c1nc2ccc(C(F)(F)F)cc2nc1NCc1ccc(Cl)c(Cl)c1
33.1 µM: BT-549 breast
30 µM: MDA-MB-435
> 100 µM: RPMI-8226 leukemia
47.2 µM: SW-620 colon
34.6 µM: A498 renal
32.5 µM: DU-145 prostate
28.3 µM: U251 CNS
29.7 µM: HCT-116 colon
25.1 µM: SNB-19 CNS
30.4 µM: EKVX NSCLC
34.5 µM: MDA-MB-231 breast
36.5 µM: HCT-15 colon
32.8 µM: OVCAR-8 ovarian
37.5 µM: SK-MEL-5 melanoma
28.8 µM: SN12C renal
44.1 µM: NCI-H226 lung
36.9 µM: CAKI-1 renal

COC(=O)C1=COC(OC2OC(CO)C(O)C(O)C2O)C2C3CN4CCc5c([nH]c6ccccc56)C4(CC12)O3 (centres undefined)
91.1 µM: SF-268 CNS
not listed: HS 578T breast | MDA-MB-435
> 100 µM: all other assays above

O=C1/C(=C/c2ccco2)N=C2Sc3c(nc[nH]c3=O)N12
not listed: BT-549 breast
> 100 µM: all other assays above

O=C(O)COc1ccc(C(=O)/C(SS/C(C(=O)c2ccc(OCC(=O)O)c(Cl)c2Cl)=C2\C=C(c3ccc(Cl)cc3)SS2)=C2/C=C(c3ccc(Cl)cc3)SS2)c(Cl)c1Cl
27.6 µM: SF-268 CNS
15.4 µM: U251 CNS
1.79 µM: SN12C renal
18.7 µM: NCI-H226 lung
11.5 µM: SW-620 colon
18.1 µM: HCT-15 colon
> 100 µM: TK-10 renal | CAKI-1 renal | A498 renal | OVCAR-8 ovarian | EKVX NSCLC | SNB-19 CNS
48.1 µM: SK-MEL-5 melanoma
22.8 µM: HCT-116 colon
43.3 µM: RPMI-8226 leukemia

O=C1C=CC2(C=C1)CCNC1=C2C(=O)c2ccccc2C1=O
not listed: CAKI-1 renal | DU-145 prostate | MDA-MB-231 breast | SNB-19 CNS | HS 578T breast | MDA-MB-435 | BT-549 breast
> 100 µM: all other assays above

CCOC(=O)C1(C(=O)OCC)C[C@@H](C)[C@@H](O)C1
not listed: BT-549 breast
> 100 µM: all other assays above

C/C=C1\CC2C(=O)CCC2C2c3ccccc3OC12 (centres undefined)
0.821 µM: SN12C renal
10.7 µM: DU-145 prostate
not listed: A498 renal | BT-549 breast
> 100 µM: all other assays above

[N-]=[N+]=Nc1c(Cl)c(Cl)nc2ccccc12
57.8 µM: CAKI-1 renal
not listed: U251 CNS | BT-549 breast
> 100 µM: all other assays above

Cc1nc(N2N=C(c3ccc(Cl)cc3)CCC2=O)sc1[N+](=O)[O-]
not listed: DU-145 prostate | A498 renal | MDA-MB-231 breast | HS 578T breast | MDA-MB-435 | BT-549 breast
> 100 µM: all other assays above

CN(C)CCCNc1ncnc2c1ncn2C1OC(CO)C(O)C1O (centres undefined)
not listed: HS 578T breast
> 100 µM: all other assays above
